Patent EP2839831A1, “Modulators of the unconventional secretory pathway for use in the treatment of Alexander disease” (Rheinische Friedrich-Wilhelms-Universität Bonn, priority 2013, dated 2015)

Tested on: secretion of endogenous insulin-degrading enzyme (IDE)
Test: Secretion assay: effect of lovastatin on IDE secretion in COS-7 cells transfected with GFAP-ΔEx4 (Western immunoblot, ratio of IDE in medium to IDE in lysates)
Type: cell-based, monkey
Conditions: Primates, 5 µM lovastatin for 15 hours, 36 hours post transfection, versus DMSO vehicle, read-out: increase of IDE secretion (ratio of IDE in the medium to IDE in the lysates) compared to GFAP-ΔEx4
Description: COS-7 cells, a fibroblast-like cell line from monkey kidney tissue (ATCC, USA), were cultured in Dulbecco's Modified Eagle Medium (DMEM) (Life Technologies) containing 10% Fetal calf serum (FCS) (Life Technologies) and 1% Penicillin/Streptomycin (PS) (Life Technologies) (DMEM +/+) and splitted into new dishes (Coming). For all experiments cells were counted by using a Neubauer counting chamber. To estimate cell number (cells/ml), the average number from four big squares of the Neubauer chamber was multiplied by 10'000 and the cell suspension was diluted to the desired cell concentration. […]
The effect of statins on the secretion of IDE disturbed by Alexander disease-causing mutation in the 2A rod region of GFAP was determined by cell transfection and pharmacological treatment in COS-7 cells.
Cells were seeded in 6 well plates day before the transfection to a 50% confluence in DMEM medium supplemented with 10% FCS/1% PS. […] Proteins were separated by sodium dodecyl sulfate-polyacrylamide gel electrophoresis (SDS-PAGE), transferred to nitrocellulose membranes (Whatman), and detected by Western immunoblotting using enhanced chemiluminescence detection (ChemiDoc XRS, Bio-Rad). Signals were quantified with Quantity One Software (Bio-Rad).

Question: With `CC[C@H](C)C(=O)O[C@H]1C[C@@H](C)C=C2C=C[C@H](C)[C@H](CC[C@@H]3C[C@@H](O)CC(=O)O3)[C@H]21` [lovastatin, [(1S,3R,7S,8S,8aR)-8-[2-[(2R,4R)-4-hydroxy-6-oxooxan-2-yl]ethyl]-3,7-dimethyl-1,2,3,7,8,8a-hexahydronaphthalen-1-yl] (2S)-2-methylbutanoate] as the compound, how does the activation at 5 µM read?
Answer: ~100%
